From paper PMC6274369, “Novel Anthranilamide-Based FXa Inhibitors: Drug Design, Synthesis and Biological Evaluation” (Molecules, 2016)
pIC50, pKi: −log10 of the molar value.

Assays:
FXa = settings: Figure 4, design basis; no reference given; cited from earlier work
human FXa = target: T1, human FXa (Homo sapiens, UniProt P00742); assay: Inhibition of FXa in vitro (chromogenic substrate CS-11(22)); format: biochemical; settings: for pKi: Km = 2.4; for pIC50: chromogenic substrate, 37 °C, pH 7.4
T1 construct: purchased Hyphen BioMed, Paris, France
Method: The inhibition of FXa was measured using human FXa (Hyphen BioMed, Paris, France) and chromogenic substrate CS-11(22) (Hyphen BioMed, Paris, France) in 384-well microtiter plates at room temperature. […] 2 μL of FXa (56.8 nM), 16 μL of Tris buffer (adjust to pH 7.4 with HCl containing 0.3 M NaCl and 50 mM Tris) and 3 μL of test compound were added to the well, respectively. The negative control was composed of the same mixed solutions except replacing test compound with DMSO. […] After incubated at 37 °C for 5 min, 8 μL of FXa substrate solution (3.5 mM) was added and then incubated at 37 °C for 25 min. The FXa activity was measured at 405 nm using a SpectraMax M5 (Molecular Devices, Sunnyvale, CA, USA). The IC50 was calculated by the software named SPSS (IBM, North Castle, NY, USA) and the Probit function in it.

human FIIa = target: T2, human FIIa (Homo sapiens, UniProt P00734); assay: Thrombin inhibition in vitro (chromogenic substrate CS-01(38)); format: biochemical; settings: tested 10 μM to 100 μM
T2 construct: purchased Hyphen BioMed, Paris, France
Method: The inhibition of thrombin was measured using human FIIa (Hyphen BioMed, Paris, France) and chromogenic substrate CS-01(38) (Hyphen BioMed, Paris, France) in 384-well microtiter plates at room temperature. […] 2 μL of FIIa (3 NIH/mL), 20 μL of Tris buffer (adjust to pH 7.4 with HCl) containing 0.3 M NaCl and 50 mM Tris and 2 μL of test compound were added to the well, respectively. The negative control was composed of the same mixed solutions except replacing test compound with DMSO. The positive control was composed of the same mixed solutions except replacing test compound with Rivaroxaban. After incubated at 37 °C for 5 min, 3 μL of FIIa substrate solution (4 mM) was added and then incubated at 37 °C for 25 min. The FIIa activity was measured at 405 nm using a SpectraMax M5 (Molecular Devices).

rat plasma = assay: Prothrombin time (PT) assay in rat plasma; format: biochemical; settings: concentration doubling prothrombin time
Method: (§1) A commercially available automatic coagulometer (Steellex Science Instrument Co., Ltd., Beijing, China) was employed to measure PT. The clotting times were also measured using the instrument itself, in accordance with the manufacturer’s instructions. Increasing concentrations of inhibitor or solvent were added to rat (Sprague-Dawley rats, Shanchuanhong Experimental Animals Co., Ltd., Tianjin, China) and human plasma and incubated for 3 min at 37 °C. Prothrombin time (PT) was determined by automatic coagulometer.

human plasma = assay: Prothrombin time (PT) assay in human plasma; format: biochemical; settings: concentration doubling prothrombin time
Method: as §1

thrombin = system: thrombin; set-up: method as in PMID 16305517; settings: read-out: selectivity against thrombin (IC50); cited from earlier work

T1 sequence (P00742 235-488 limits assumed): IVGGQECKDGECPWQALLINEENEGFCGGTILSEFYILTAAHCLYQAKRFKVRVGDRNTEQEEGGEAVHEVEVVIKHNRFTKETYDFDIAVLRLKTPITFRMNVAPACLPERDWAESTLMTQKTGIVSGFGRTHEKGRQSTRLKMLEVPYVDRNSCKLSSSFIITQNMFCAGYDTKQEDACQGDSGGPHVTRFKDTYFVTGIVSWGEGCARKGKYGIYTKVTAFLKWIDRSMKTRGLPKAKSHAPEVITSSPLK
T1 sequence (P00742 41-179 partner limits assumed): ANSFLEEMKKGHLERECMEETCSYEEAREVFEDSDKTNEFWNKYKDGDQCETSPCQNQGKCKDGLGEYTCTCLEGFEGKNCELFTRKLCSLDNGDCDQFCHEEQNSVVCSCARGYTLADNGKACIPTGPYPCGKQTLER

Row | Structure (SMILES) | pIC50 (human FXa) | further results
2 | O=C(Nc1ccccc1C(=O)Nc1ccc(N2CCOCC2=O)cc1)c1ccc(F)cc1 [Compound 1n, 2-(4-Fluorobenzamido)-N-(4-(3-oxomorpholino)phenyl)benzamide] | < 6.00 | –
3 | O=C(Nc1ccccc1C(=O)Nc1ccc(N2CCOCC2=O)cc1)c1ccc(Cl)cc1 [Compound 1o, 2-(4-Chlorobenzamido)-N-(4-(3-oxomorpholino)phenyl)benzamide] | 6.36 | –
4 | O=C(Nc1ccc(Cl)cc1C(=O)Nc1ccc(N2CCOCC2=O)cc1)c1ccc(Cl)s1 [Compound 1p, 5-Chloro-N-(4-chloro-2-((4-(3-oxomorpholino)phenyl)carbamoyl)phenyl)thiophene-2-carboxamide] | 6.96 | –
5 | O=C(Nc1ccc(Cl)cc1C(=O)Nc1ccc(N2CCOCC2=O)cc1)c1ccc(F)cc1 [Compound 1q, 5-Chloro-2-(4-fluorobenzamido)-N-(4-(3-oxomorpholino)phenyl)benzamide] | < 6.00 | –
6 | O=C(Nc1ccc(Cl)cc1C(=O)Nc1ccc(N2CCOCC2=O)cc1)c1ccc(Cl)cc1 [Compound 1r, 5-Chloro-2-(4-chlorobenzamido)-N-(4-(3-oxomorpholino)phenyl)benzamide] | 6.02 | –
7 | Cc1ccc(NC(=O)c2ccc(F)cc2)c(C(=O)Nc2ccc(N3CCOCC3=O)cc2)c1 [Compound 1t, 2-(4-Fluorobenzamido)-5-methyl-N-(4-(3-oxomorpholino)phenyl)benzamide] | < 6.00 | –
8 | Cc1ccc(NC(=O)c2ccc(Cl)cc2)c(C(=O)Nc2ccc(N3CCOCC3=O)cc2)c1 [Compound 1u, 2-(4-Chlorobenzamido)-5-methyl-N-(4-(3-oxomorpholino)phenyl)benzamide] | < 6.00 | –
9 | Cc1cccc(C(=O)Nc2ccc(N3CCOCC3=O)cc2)c1NC(=O)c1ccc(F)cc1 [Compound 1w, 2-(4-Fluorobenzamido)-3-methyl-N-(4-(3-oxomorpholino)phenyl)benzamide] | < 6.00 | –
10 | COc1ccc(C(=O)Nc2cccc(O)c2NC(=O)c2ccc(N3CCCN(C)CC3)cc2)cc1 [Darexaban] | – | pIC50 (FXa): 7.26
11 | O=C(NC[C@H]1CN(c2ccc(N3CCOCC3=O)cc2)C(=O)O1)c1ccc(Cl)s1 [Rivaroxaban, reference compound] | – | 2 × PT (μM) (Rat) (rat plasma): 0.3 µM; pIC50 (thrombin): < 5.16; 2 × PT (μM) (Human) (human plasma): 0.2 µM; pIC50 (FXa): […]

More lines, main results first:

Row | pIC50 (human FXa) | Structure (SMILES) | further results
12 | 7.52 | O=C(Nc1ccccc1C(=O)Nc1ccc(-n2ccccc2=O)cc1)c1ccc(Cl)s1 [Compound 1a, 5-Chloro-N-(2-((4-(2-oxopyridin-1(2H)-yl)phenyl)carbamoyl)phenyl)thiophene-2-carboxamide] | pKi (human FXa): 7.66; pIC50 (human FIIa): < 5.00
13 | < 6.00 | O=C(Nc1ccccc1C(=O)Nc1ccc(-n2ccccc2=O)cc1)c1ccc(F)cc1 [Compound 1b, 2-(4-Fluorobenzamido)-N-(4-(2-oxopyridin-1(2H)-yl)phenyl)benzamide] | –
14 | 6.70 | O=C(Nc1ccccc1C(=O)Nc1ccc(-n2ccccc2=O)cc1)c1ccc(Cl)cc1 [Compound 1c, 2-(4-Chlorobenzamido)-N-(4-(2-oxopyridin-1(2H)-yl)phenyl)benzamide] | –
15 | 6.37 | O=C(Nc1ccc(Cl)cc1C(=O)Nc1ccc(-n2ccccc2=O)cc1)c1ccc(Cl)s1 [Compound 1d, 5-Chloro-N-(4-chloro-2-((4-(2-oxopyridin-1(2H)-yl)phenyl)carbamoyl)phenyl)thiophene-2-carboxamide] | –
16 | < 6.00 | O=C(Nc1ccc(Cl)cc1C(=O)Nc1ccc(-n2ccccc2=O)cc1)c1ccc(F)cc1 [Compound 1e, 5-Chloro-2-(4-fluorobenzamido)-N-(4-(2-oxopyridin-1(2H)-yl)phenyl)benzamide] | –
17 | 6.24 | O=C(Nc1ccc(Cl)cc1C(=O)Nc1ccc(-n2ccccc2=O)cc1)c1ccc(Cl)cc1 [Compound 1f, 5-Chloro-2-(4-chlorobenzamido)-N-(4-(2-oxopyridin-1(2H)-yl)phenyl)benzamide] | –
18 | 7.60 | Cc1ccc(NC(=O)c2ccc(Cl)s2)c(C(=O)Nc2ccc(-n3ccccc3=O)cc2)c1 [Compound 1g, 5-Chloro-N-(4-methyl-2-((4-(2-oxopyridin-1(2H)-yl)phenyl)carbamoyl)phenyl)thiophene-2-carboxami-de] | 2 × PT (μM) (Rat) (rat plasma): 19.7 µM; pKi (human FXa): 7.79; 2 × PT (μM) (Human) (human plasma): 12.8 µM; pIC50 (human FIIa): < 5.00
19 | < 6.00 | Cc1ccc(NC(=O)c2ccc(F)cc2)c(C(=O)Nc2ccc(-n3ccccc3=O)cc2)c1 [Compound 1h, 2-(4-Fluorobenzamido)-5-methyl-N-(4-(2-oxopyridin-1(2H)-yl)phenyl)benzamide] | –
20 | 6.29 | Cc1ccc(NC(=O)c2ccc(Cl)cc2)c(C(=O)Nc2ccc(-n3ccccc3=O)cc2)c1 [Compound 1i, 2-(4-Chlorobenzamido)-5-methyl-N-(4-(2-oxopyridin-1(2H)-yl)phenyl)benzamide] | –
21 | < 6.00 | Cc1cccc(C(=O)Nc2ccc(-n3ccccc3=O)cc2)c1NC(=O)c1ccc(Cl)s1 [Compound 1j, 5-Chloro-N-(2-methyl-6-((4-(2-oxopyridin-1(2H)-yl)phenyl)carbamoyl)phenyl)thiophene-2-carboxami-de] | –
22 | < 6.00 | Cc1cccc(C(=O)Nc2ccc(-n3ccccc3=O)cc2)c1NC(=O)c1ccc(F)cc1 [Compound 1k, 2-(4-Fluorobenzamido)-3-methyl-N-(4-(2-oxopyridin-1(2H)-yl)phenyl)benzamide] | –
23 | < 6.00 | Cc1cccc(C(=O)Nc2ccc(-n3ccccc3=O)cc2)c1NC(=O)c1ccc(Cl)cc1 [Compound 1l, 2-(4-Chlorobenzamido)-3-methyl-N-(4-(2-oxopyridin-1(2H)-yl)phenyl)benzamide] | –
24 | 6.50 | O=C(Nc1ccccc1C(=O)Nc1ccc(N2CCOCC2=O)cc1)c1ccc(Cl)s1 [Compound 1m, 5-Chloro-N-(2-((4-(3-oxomorpholino)phenyl)carbamoyl)phenyl)thiophene-2-carboxamide] | –
25 | 7.15 | Cc1ccc(NC(=O)c2ccc(Cl)s2)c(C(=O)Nc2ccc(N3CCOCC3=O)cc2)c1 [Compound 1s, 5-Chloro-N-(4-methyl-2-((4-(3-oxomorpholino)phenyl)carbamoyl)phenyl)thiophene-2-carboxamide] | 2 × PT (μM) (Rat) (rat plasma): 24.2 µM; pKi (human FXa): 7.26; 2 × PT (μM) (Human) (human plasma): 10.4 µM; pIC50 (human FIIa): < 5.00
26 | < 6.00 | Cc1cccc(C(=O)Nc2ccc(N3CCOCC3=O)cc2)c1NC(=O)c1ccc(Cl)s1 [Compound 1v, 5-Chloro-N-(2-methyl-6-((4-(3-oxomorpholino)phenyl)carbamoyl)phenyl)thiophene-2-carboxamide] | –
27 | < 6.00 | Cc1cccc(C(=O)Nc2ccc(N3CCOCC3=O)cc2)c1NC(=O)c1ccc(Cl)cc1 [Compound 1x, 2-(4-Chlorobenzamido)-3-methyl-N-(4-(3-oxomorpholino)phenyl)benzamide] | –
